# Source: patent US20090270394A1, “CYCLYLAMINE DERIVATIVES AS CALCIUM CHANNEL BLOCKERS” (priority 2008, published 2009)
# Target: T1, Human Cav2.2 channels (Homo sapiens, UniProt Q00975)
# T1 construct: expressed in transfected cells
# Assay: Fluorescent assay for Cav2.2 channels using potassium depolarization to initiate channel opening
# Format: cell-based
# Details: for inhibition at 10 µM: 10 μM compound, read-out: Cav 2.2 Activity % Inh at 10 μM; for inhibition at 30 µM: 30 μM compound, read-out: Cav 2.2 Activity % Inh at 30 μM; for IC50: 30 mM K (block of open and inactivated channels), read-out: Cav 2.2 Activity IC50 at 30 mM K
# Source text: Human Cav2.2 channels were stably expressed in HEK293 cells along with alpha2-delta and beta subunits of voltage-gated calcium channels. An inwardly rectifying potassium channel (Kir2.3) was also expressed in these cells to allow more precise control of the cell membrane potential by extracellular potassium concentration. At low bath potassium concentration, the membrane potential is relatively negative, and is depolarized as the bath potassium concentration is raised. In this way, the bath potassium concentration can be used to regulate the voltage-dependent conformations of the channels. […] After the incubation period, Cav2.2 channel opening is triggered by addition of higher concentration of potassium (70 mM final concentration) to further depolarize the cell. The degree of state-dependent block can be estimated from the inhibitory potency of compounds after incubation in different potassium concentrations.
# Calcium influx through Cav2.2 channels is determined using a calcium sensitive fluorescent dye in combination with a fluorescent plate reader. Fluorescent changes were measured with either a VIPR (Aurora Instruments) or FLIPR (Molecular Devices) plate reader.
# • 1. Seed cells in Poly-D-Lysine Coated 96 or 384-well plate and keep in a 37° C.-10% CO2 incubator overnight • 2. […] Incubate in the dark at 25° C. for 60-70 min • 5. Remove dye, wash cells with 0.1 mL (96-well plate) or 0.06 mL (384-well plate) of 4, 12, 25, or 30 mM Potassium Pre-polarization Buffer (PPB) • 6. […] Incubate in the dark at 25° C. for 30 min • 8. Read cell plate on VIPR instrument, Excitation=480 nm, Emission=535 nm • 9. With VIPR continuously reading, add 0.1 mL (96-well plate) or 0.03 mL (384-well plate) of Depolarization Buffer (DB), which is 2× the final assay concentration, to the cell plate.
# T1 sequence (Q00975 whole entry): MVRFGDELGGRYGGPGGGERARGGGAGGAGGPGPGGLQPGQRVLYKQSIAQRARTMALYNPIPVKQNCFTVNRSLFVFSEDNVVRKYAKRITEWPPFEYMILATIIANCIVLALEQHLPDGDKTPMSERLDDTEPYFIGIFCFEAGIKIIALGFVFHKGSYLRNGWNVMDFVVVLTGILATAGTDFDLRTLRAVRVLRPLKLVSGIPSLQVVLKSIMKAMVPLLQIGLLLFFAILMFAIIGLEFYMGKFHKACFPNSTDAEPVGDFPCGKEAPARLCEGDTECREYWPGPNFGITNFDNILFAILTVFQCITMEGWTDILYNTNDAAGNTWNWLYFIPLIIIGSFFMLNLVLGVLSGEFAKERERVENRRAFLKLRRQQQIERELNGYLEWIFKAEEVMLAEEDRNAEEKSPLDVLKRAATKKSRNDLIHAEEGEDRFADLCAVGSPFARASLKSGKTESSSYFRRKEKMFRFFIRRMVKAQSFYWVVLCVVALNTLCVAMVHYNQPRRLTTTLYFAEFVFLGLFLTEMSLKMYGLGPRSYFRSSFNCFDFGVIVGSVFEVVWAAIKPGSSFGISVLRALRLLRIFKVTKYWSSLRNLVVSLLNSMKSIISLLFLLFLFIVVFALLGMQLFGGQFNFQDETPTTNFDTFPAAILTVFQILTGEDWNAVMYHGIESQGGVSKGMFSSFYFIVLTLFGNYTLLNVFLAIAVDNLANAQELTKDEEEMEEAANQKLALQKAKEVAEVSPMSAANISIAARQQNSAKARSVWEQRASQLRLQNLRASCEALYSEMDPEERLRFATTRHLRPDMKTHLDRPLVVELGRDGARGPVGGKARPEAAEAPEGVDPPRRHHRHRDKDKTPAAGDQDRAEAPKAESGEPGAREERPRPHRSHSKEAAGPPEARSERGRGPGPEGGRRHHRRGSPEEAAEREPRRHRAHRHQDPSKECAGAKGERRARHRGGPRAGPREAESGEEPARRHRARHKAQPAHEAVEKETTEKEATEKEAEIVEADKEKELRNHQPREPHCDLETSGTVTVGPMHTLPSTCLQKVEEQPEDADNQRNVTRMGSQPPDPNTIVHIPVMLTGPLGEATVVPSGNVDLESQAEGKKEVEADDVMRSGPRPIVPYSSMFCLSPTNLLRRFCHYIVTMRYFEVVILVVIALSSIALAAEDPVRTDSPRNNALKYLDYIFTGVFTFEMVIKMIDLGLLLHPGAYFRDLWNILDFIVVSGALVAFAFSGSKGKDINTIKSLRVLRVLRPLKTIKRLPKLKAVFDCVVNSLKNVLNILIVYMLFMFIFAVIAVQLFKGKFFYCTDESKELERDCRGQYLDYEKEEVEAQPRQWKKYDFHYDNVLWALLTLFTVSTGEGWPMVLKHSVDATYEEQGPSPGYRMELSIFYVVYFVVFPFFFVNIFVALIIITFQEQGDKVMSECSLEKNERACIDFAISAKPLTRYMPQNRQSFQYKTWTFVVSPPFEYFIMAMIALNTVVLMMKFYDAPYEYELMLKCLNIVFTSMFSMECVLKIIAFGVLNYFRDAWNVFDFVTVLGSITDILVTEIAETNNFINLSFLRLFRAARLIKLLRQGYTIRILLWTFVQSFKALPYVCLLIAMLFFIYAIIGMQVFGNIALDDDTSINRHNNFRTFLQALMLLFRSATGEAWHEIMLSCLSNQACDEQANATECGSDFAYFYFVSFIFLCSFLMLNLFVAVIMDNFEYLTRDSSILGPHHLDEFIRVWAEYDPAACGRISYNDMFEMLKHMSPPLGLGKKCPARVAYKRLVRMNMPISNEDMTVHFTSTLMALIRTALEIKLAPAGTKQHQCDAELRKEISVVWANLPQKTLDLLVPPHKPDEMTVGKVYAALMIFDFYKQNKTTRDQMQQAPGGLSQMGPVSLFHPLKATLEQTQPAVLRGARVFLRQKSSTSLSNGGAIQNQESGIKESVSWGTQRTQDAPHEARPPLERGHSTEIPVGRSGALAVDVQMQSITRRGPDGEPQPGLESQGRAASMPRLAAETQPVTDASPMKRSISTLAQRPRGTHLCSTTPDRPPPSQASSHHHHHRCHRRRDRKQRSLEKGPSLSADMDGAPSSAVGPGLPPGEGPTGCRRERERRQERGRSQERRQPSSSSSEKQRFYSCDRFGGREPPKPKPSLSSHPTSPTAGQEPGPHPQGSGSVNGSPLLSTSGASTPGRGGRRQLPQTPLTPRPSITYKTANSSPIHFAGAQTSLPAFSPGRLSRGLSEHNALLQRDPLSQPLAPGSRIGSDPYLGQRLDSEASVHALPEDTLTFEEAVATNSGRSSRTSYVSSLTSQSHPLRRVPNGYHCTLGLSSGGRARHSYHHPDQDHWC
# T1 sequence (P54289 25-1103 partner): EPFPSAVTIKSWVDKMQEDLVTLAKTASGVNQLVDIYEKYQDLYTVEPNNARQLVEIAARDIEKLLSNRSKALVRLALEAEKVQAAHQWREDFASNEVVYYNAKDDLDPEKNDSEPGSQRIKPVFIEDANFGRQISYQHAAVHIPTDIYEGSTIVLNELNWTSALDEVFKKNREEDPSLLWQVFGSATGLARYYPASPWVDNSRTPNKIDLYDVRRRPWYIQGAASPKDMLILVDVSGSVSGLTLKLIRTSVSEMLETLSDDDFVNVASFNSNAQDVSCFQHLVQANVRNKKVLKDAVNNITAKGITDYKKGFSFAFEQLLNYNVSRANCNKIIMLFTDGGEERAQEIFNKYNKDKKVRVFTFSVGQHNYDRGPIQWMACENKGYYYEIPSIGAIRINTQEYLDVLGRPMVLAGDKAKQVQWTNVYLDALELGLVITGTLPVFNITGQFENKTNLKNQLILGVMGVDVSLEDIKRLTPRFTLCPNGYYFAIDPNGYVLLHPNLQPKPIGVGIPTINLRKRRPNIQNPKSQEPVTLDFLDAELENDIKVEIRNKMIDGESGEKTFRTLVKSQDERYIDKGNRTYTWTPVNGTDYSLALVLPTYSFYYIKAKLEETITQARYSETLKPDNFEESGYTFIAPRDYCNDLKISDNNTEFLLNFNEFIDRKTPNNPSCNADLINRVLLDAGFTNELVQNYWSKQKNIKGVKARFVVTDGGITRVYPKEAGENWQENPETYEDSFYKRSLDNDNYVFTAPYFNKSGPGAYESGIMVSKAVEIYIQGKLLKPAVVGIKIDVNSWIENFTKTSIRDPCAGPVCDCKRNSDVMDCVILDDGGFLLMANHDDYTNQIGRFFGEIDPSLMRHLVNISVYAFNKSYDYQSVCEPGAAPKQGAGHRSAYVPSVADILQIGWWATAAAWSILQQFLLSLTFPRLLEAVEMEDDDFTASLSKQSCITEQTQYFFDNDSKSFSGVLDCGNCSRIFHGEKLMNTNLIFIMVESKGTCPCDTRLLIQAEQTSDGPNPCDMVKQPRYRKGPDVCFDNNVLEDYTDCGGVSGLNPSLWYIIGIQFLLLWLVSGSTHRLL
# T1 sequence (P54284 whole entry partner): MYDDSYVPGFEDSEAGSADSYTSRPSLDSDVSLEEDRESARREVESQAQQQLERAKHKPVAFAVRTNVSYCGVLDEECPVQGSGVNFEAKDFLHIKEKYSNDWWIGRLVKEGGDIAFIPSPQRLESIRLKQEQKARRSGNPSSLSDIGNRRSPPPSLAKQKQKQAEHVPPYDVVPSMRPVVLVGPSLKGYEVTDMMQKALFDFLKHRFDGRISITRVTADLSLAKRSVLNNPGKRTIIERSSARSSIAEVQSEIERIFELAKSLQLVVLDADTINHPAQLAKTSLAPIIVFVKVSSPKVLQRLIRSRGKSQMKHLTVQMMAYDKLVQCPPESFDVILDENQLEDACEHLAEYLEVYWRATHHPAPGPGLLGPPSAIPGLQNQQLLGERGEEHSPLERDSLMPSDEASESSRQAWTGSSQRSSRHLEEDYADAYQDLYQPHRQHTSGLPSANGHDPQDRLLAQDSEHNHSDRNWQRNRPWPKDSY
Compound,inhibition at 10 µM [%],inhibition at 30 µM [%],IC50 [nM]
"COc1c(C(C)(C)C)cc(C(=O)NC2(C(=O)NCc3cccc(C(F)(F)F)c3)CCCCC2)cc1C(C)(C)C [Compound 33, 3,5-di-tert-butyl-4-methoxy-N-(1-(3-(trifluoromethyl)benzylcarbamoyl)cyclohexyl)benzamide]",81.4,90.5,37.6
"CC(C)(C)NC(=O)C(C)(C)c1ccc(C(=O)NC2(C(=O)NCc3cccc(C(F)(F)F)c3)CCCCC2)cc1 [Compound 126, 4-(1-(tert-butylamino)-2-methyl-1-oxopropan-2-yl)-N-(1-(3-(trifluoromethyl)benzylcarbamoyl)cyclohexyl)benzamide]",102,104,273
"COc1ccc(CNC(=O)C2(NC(=O)c3cc(C(C)(C)C)c(OC)c(C(C)(C)C)c3)CCOCC2)cc1 [Compound 114, 4-(3,5-di-tert-butyl-4-methoxybenzamido)-N-(4-methoxybenzyl)tetrahydro-2H-pyran-4-carboxamide]",90.8,92.4,32.4
"COc1c(C(C)(C)C)cc(C(=O)NC2(C(=O)N3CCN(C)CC3)CCCCC2)cc1C(C)(C)C [Compound 104, 3,5-di-tert-butyl-4-methoxy-N-(1-(4-methylpiperazine-1-carbonyl)cyclohexyl)benzamide]",,,1020
"COc1ccc(CNC(=O)C2(NC(=O)c3cc(C(C)(C)C)c(OC)c(C(C)(C)C)c3)CCCC2)cc1 [Compound 38, 3,5-di-tert-butyl-4-methoxy-N-(1-(4-methoxybenzylcarbamoyl)cyclopentyl)benzamide]",97.8,99,35.9
"COc1ccc(CNC(=O)C2(NC(=O)c3cc(C(C)(C)C)cc(C(C)(C)C)c3)CCCC2)cc1 [Compound 37, 3,5-di-tert-butyl-N-(1-(4-methoxybenzylcarbamoyl)cyclopentyl)benzamide]",93,95.8,153
"CC(C)(C)c1cc(C(=O)NC2(C(=O)NCc3cccc(C(F)(F)F)c3)Cc3ccccc3C2)cc(C(C)(C)C)c1 [Compound 53, 2-(3,5-di-tert-butylbenzamido)-N-(3-(trifluoromethyl)benzyl)-2,3-dihydro-1H-indene-2-carboxamide]",56.3,74.3,
"COc1c(C(C)(C)C)cc(C(=O)NC2(C(=O)N3CCN(c4ccccc4)CC3)CCCCC2)cc1C(C)(C)C [Compound 82, 3,5-di-tert-butyl-4-methoxy-N-(1-(4-phenylpiperazine-1-carbonyl)cyclohexyl)benzamide]",92.6,101,70.9
"COc1c(C(C)(C)C)cc(C(=O)NC2(C(=O)NCc3cc(C)n(C)n3)CCCCC2)cc1C(C)(C)C [Compound 85, 3,5-di-tert-butyl-N-(1-((1,5-dimethyl-1H-pyrazol-3-yl)methylcarbamoyl)cyclohexyl)-4-methoxybenzamide]",87.7,93.2,26.7
"CC(C)(C)c1cc(C(=O)NC2(C(=O)NCc3cccc(S(C)(=O)=O)c3)CC2)cc(C(C)(C)C)c1O [Compound 16, 3,5-di-tert-butyl-4-hydroxy-N-(1-(3-(methylsulfonyl)benzylcarbamoyl)cyclopropyl)benzamide]",89.3,93,
"COc1ccc(CNC(=O)C2(NC(=O)c3cc(C(C)(C)C)c(OC)c(C(C)(C)C)c3)CCCCC2)cc1 [Compound 31, 3,5-di-tert-butyl-4-methoxy-N-(1-(4-methoxybenzylcarbamoyl)cyclohexyl)benzamide]",87.5,105,2.6
"CN(C)c1ccc(CNC(=O)C2(NC(=O)c3cc(C(C)(C)C)cc(C(C)(C)C)c3)CCCCC2)cc1 [Compound 48, 3,5-di-tert-butyl-N-(1-(4-(dimethylamino)benzylcarbamoyl)cyclohexyl)benzamide]",88.7,90.3,371
"CC(C)(C)c1cc(C(=O)NC2(C(=O)NCCCN3CCOCC3)CCCCC2)cc(C(C)(C)C)c1 [Compound 102, 3,5-di-tert-butyl-N-(1-(3-morpholinopropylcarbamoyl)cyclohexyl)benzamide]",,,253
"Cc1cnc(CNC(=O)C2(NC(=O)c3cc(C(C)(C)C)c(O)c(C(C)(C)C)c3)CCCCC2)cn1 [Compound 5, 3,5-di-tert-butyl-4-hydroxy-N-(1-((5-methylpyrazin-2-yl)methylcarbamoyl)cyclohexyl)benzamide]",94.6,96.4,127
"Cc1cc(CNC(=O)C2(NC(=O)c3cc(C4CC4)cc(C4CC4)c3)CCCCC2)nn1C [Compound 6, 3,5-dicyclopropyl-N-(1-((1,5-dimethyl-1H-pyrazol-3-yl)methylcarbamoyl)cyclohexyl)benzamide]",54.7,66,
"COc1ccc(CNC(=O)C2(NC(=O)c3cc(C(C)(C)C)c(O)c(C(C)(C)C)c3)CC2)cc1 [Compound 109, 3,5-di-tert-butyl-4-hydroxy-N-(1-(4-methoxybenzylcarbamoyl)cyclopropyl)benzamide]",29.8,40,87.7
"COc1c(C(C)(C)C)cc(C(=O)NC2(C(=O)NCc3ccc(S(C)(=O)=O)cc3)CCCCC2)cc1C(C)(C)C [Compound 108, 3,5-di-tert-butyl-4-methoxy-N-(1-(4-(methylsulfonyl)benzylcarbamoyl)cyclohexyl)benzamide]",,,81.6
"Cc1cnc(CNC(=O)C2(NC(=O)c3cc(C(C)(C)C)c(O)c(C(C)(C)C)c3)CC2)cn1 [Compound 3, 3,5-di-tert-butyl-4-hydroxy-N-(1-((5-methylpyrazin-2-yl)methylcarbamoyl)cyclopropyl)benzamide]",89.8,98.8,1620
"Cc1cc(CNC(=O)C2(NC(=O)c3cc(C(C)(C)C)c(O)c(C(C)(C)C)c3)CCCCC2)nn1C [Compound 8, 3,5-di-tert-butyl-N-(1-((1,5-dimethyl-1H-pyrazol-3-yl)methylcarbamoyl)cyclohexyl)-4-hydroxybenzamide]",100,99,129

# The remaining lines, values ahead:
inhibition at 10 µM [%],inhibition at 30 µM [%],IC50 [nM],Compound
87.8,93.3,53.5,"Cc1cnc(CNC(=O)C2(NC(=O)c3cc(C(C)(C)C)nc(C(C)(C)C)c3)CCCCC2)cn1 [Compound 81, 2,6-di-tert-butyl-N-(1-((5-methylpyrazin-2-yl)methylcarbamoyl)cyclohexyl)isonicotinamide]"
68.2,82.3,,"CC(C)(C)c1cc(C(=O)NC2(C(=O)O)CCCCC2)cc(C(C)(C)C)c1 [Compound 34, 1-(3,5-di-tert-butylbenzamido)cyclohexanecarboxylic acid]"
69.5,104,,"CC(C)(C)c1cc(C(=O)NC2(C(=O)NCc3ccccc3)CCNCC2)cc(C(C)(C)C)n1 [Compound 64, N-(4-(benzylcarbamoyl)piperidin-4-yl)-2,6-di-tert-butylisonicotinamide]"
96.6,87.2,329,"CC(C)(C)c1cc(C(=O)NC2(C(=O)N3CCOCC3)CCCC2)cc(C(C)(C)C)n1 [Compound 94, 2,6-di-tert-butyl-N-(1-(morpholine-4-carbonyl)cyclopentyl)isonicotinamide]"
97.1,,143,"CC(C)(C)c1cc(C(=O)NC2(C(=O)NCc3ccccn3)CC2)cc(C(C)(C)C)n1 [Compound 21, 2,6-di-tert-butyl-N-(1-(pyridin-2-ylmethylcarbamoyl)cyclopropyl)isonicotinamide]"
82.6,89.4,69.3,"CNC(=O)C1(NC(=O)c2cc(C(C)(C)C)c(OC)c(C(C)(C)C)c2)CCCCC1 [Compound 28, 3,5-di-tert-butyl-4-methoxy-N-(1-(methylcarbamoyl)cyclohexyl)benzamide]"
76,90.6,1070,"CN1CCC(NC(=O)c2cc(C(C)(C)C)nc(C(C)(C)C)c2)(C(=O)NCc2ccccc2)CC1 [Compound 97, N-(4-(benzylcarbamoyl)-1-methylpiperidin-4-yl)-2,6-di-tert-butylisonicotinamide]"
,,317,"CC(C)(C)c1cc(C(=O)NC2(C(=O)NCc3ccc(S(C)(=O)=O)cc3)CCCCC2)cc(C(C)(C)C)n1 [Compound 106, 2,6-di-tert-butyl-N-(1-(4-(methylsulfonyl)benzylcarbamoyl)cyclohexyl)isonicotinamide]"
,,105,"CNC(=O)C1(NC(=O)c2cc(C(C)(C)C)nc(C(C)(C)C)c2)CCCCC1 [Compound 101, 2,6-di-tert-butyl-N-(1-(methylcarbamoyl)cyclohexyl)isonicotinamide]"
